Test results: ChEMBL document CHEMBL1240451, “Studies on chemical modification and biology of a natural product, gambogic acid (II): Synthesis and bioevaluation of gambogellic acid and its derivatives from gambogic acid as antitumor agents” (Eur J Med Chem, 2010)
Active and inactive are the calls of the source. The calls are words filed in the database; no cut-off is given here.

Key:
HT-29 [1] = assay: Cytotoxicity against human HT-29 cells after 48 hrs by MTT assay; type: functional, cell-based; conditions: HT-29, 48 h
BGC-823 [2] = assay: Cytotoxicity against human BGC823 cells after 48 hrs by MTT assay; type: functional, cell-based; conditions: BGC-823, 48 h
BGC-823 [3] = assay: Induction of apoptosis human BGC823 cells assessed as increase of apoptotic cells after 20 hrs using Annexin-V/PI double-staining by flow cytometry (reference value: 3.9%); type: functional, cell-based
Bel-7402 [4] = assay: Ratio of compound IC50 to gambogic acid IC50 for human Bel7402 cells; type: functional
Bel-7402 [5] = assay: Cytotoxicity against human Bel7402 cells after 48 hrs by MTT assay; type: functional, cell-based; conditions: Bel-7402, 48 h
BGC-823 [6] = assay: Induction of apoptosis human BGC823 cells assessed as increase of apoptotic cells at 2 uM after 20 hrs using Annexin-V/PI double-staining by flow cytometry (reference value: 3.9%); type: functional
BGC-823 [7] = assay: Induction of apoptosis human BGC823 cells assessed as nuclear fragmentation at up to 8 uM after 20 hrs using Annexin-V/PI double-staining by light microscopic analysis; type: functional, cell-based
A549 [8] = assay: cells; conditions: Homo sapiens, A549, 48 h
Description: Cytotoxicity against human A549 cells after 48 hrs by MTT assay

BGC-823 [9] = assay: Induction of apoptosis human BGC823 cells assessed as increase of apoptotic cells at 4 uM after 20 hrs using Annexin-V/PI double-staining by flow cytometry (reference value: 3.9%); type: functional
BGC-823 [10] = assay: Induction of apoptosis human BGC823 cells assessed as increase of apoptotic cells at 8 uM after 20 hrs using Annexin-V/PI double-staining by flow cytometry (reference value: 3.9%); type: functional
BGC-823 [11] = assay: Induction of apoptosis human BGC823 cells assessed as morphological changes at up to 8 uM after 48 hrs using Annexin-V/PI double-staining by light microscopic analysis; type: functional, cell-based
A549 [12] = assay: Ratio of compound IC50 to gambogic acid IC50 for human A549 cells; type: functional
HT-29 [13] = assay: Ratio of compound IC50 to gambogic acid IC50 for human HT-29 cells; type: functional
BGC-823 [14] = assay: Ratio of compound IC50 to gambogic acid IC50 for human BGC823 cells; type: functional

| SMILES | IC50 (HT-29 [1]) [µM] | IC50 (BGC-823 [2]) [µM] | Activity (BGC-823 [3]) | Ratio IC50 (Bel-7402 [4]) | IC50 (Bel-7402 [5]) [µM] | Activity (BGC-823 [6]) [%] | Activity (BGC-823 [7]) | IC50 (A549 [8]) [µM] | Activity (BGC-823 [9]) [%] | Activity (BGC-823 [10]) [%] | Activity (BGC-823 [11]) | Ratio IC50 (A549 [12]) | Ratio IC50 (HT-29 [13]) | Ratio IC50 (BGC-823 [14]) |
| --- | --- | --- | --- | --- | --- | --- | --- | --- | --- | --- | --- | --- | --- | --- |
| C/C(=C/C[C@@]12OC(C)(C)[C@H]3C[C@@H](C=C4C(=O)c5c(O)c6c(c(CCC(C)(C)Cl)c5O[C@]431)O[C@]1(C)CCC(C3(C)CO3)C6C1)C2=O)C(=O)O (some centres undefined) | 1.33 | 0.28 | Dose-dependent effect | 4.7 | 0.44 | 4.2 | Active | 3.18 | 6.2 | 25.7 | Active |  |  |  |
| C=C(C)C1CC[C@]2(C)CC1c1c(O)c3c(c(CC=C(C)C)c1O2)O[C@]12C(=C[C@@H]4C[C@@H]1C(C)(C)O[C@@]2(C/C=C(/C)C(=O)O)C4=O)C3=O (some centres undefined) [GAMBOGELLIC ACID] | 1.34 | 0.46 |  |  | 6.48 |  |  | 1.12 |  |  |  | 2 |  |  |
| COC(=O)/C(C)=C\C[C@@]12OC(C)(C)[C@H]3C[C@@H](C=C4C(=O)c5c(O)c6c(c(CC=C(C)C)c5O[C@]431)O[C@]1(C)CCC(C3(C)CO3)C6C1)C2=O (some centres undefined) | 0.49 | 0.92 |  |  | 4.38 |  |  | 2.42 |  |  |  |  | 4 | 2 |
| C/C(=C/C[C@@]12OC(C)(C)[C@H]3C[C@@H](C=C4C(=O)c5c(O)c6c(c(CCC(C)(C)Cl)c5O[C@]431)O[C@]1(C)CC(=O)C(C(C)C)C6C1)C2=O)C(=O)O (some centres undefined) | 5.6 | 2.93 |  |  | 4.12 |  |  | 27.6 |  |  |  |  |  |  |
| C=C(C)C1CC[C@]2(C)CC1c1c(O)c3c(c(CC=C(C)C)c1O2)O[C@]12C(=C[C@@H]4C[C@@H]1C(C)(C)O[C@@]2(C/C=C(/C)C(=O)OC)C4=O)C3=O (some centres undefined) | 0.81 | 2.61 |  |  | 4.56 |  |  | 1.79 |  |  |  | 2 | 4 |  |
| CC(C)=CCC[C@]1(C)C=Cc2c(O)c3c(c(CC=C(C)C)c2O1)O[C@]12C(=C[C@@H]4C[C@H]1C(C)(C)O[C@@]2(C/C=C(/C)C(=O)O)C4=O)C3=O [GAMBOGIC ACID] | 3.52 | 2.83 |  |  | 2.08 |  |  | 3.65 |  |  |  |  |  |  |
| C=C(C)C1CC[C@]2(C)CC1c1c(O)c3c(c(CCC(C)(C)Cl)c1O2)O[C@]12C(=C[C@@H]4C[C@@H]1C(C)(C)O[C@@]2(C/C=C(/C)C(=O)O)C4=O)C3=O (some centres undefined) | 1.64 | 4 |  |  | 18.1 |  |  | 1.24 |  |  |  | 2 |  |  |
| COC(=O)/C(C)=C\C[C@@]12OC(C)(C)[C@H]3C[C@@H](C=C4C(=O)c5c(O)c6c(c(C/C=C(\C)CO)c5O[C@]431)O[C@]1(C)CCC(=C(C)C)C6C1)C2=O | 0.14 | 1.42 |  |  | 11 |  |  | 1.56 |  |  |  | 2 | 14 | 2 |
| COC(=O)/C(C)=C\C[C@@]12OC(C)(C)[C@H]3C[C@@H](C=C4C(=O)c5c(O)c6c(c(CC7OC7(C)C)c5O[C@]431)O[C@]1(C)CCC(=C(C)C)C6C1)C2=O (some centres undefined) | 0.12 | 2.53 |  |  | 8.1 |  |  | 2.34 |  |  |  |  | 14 |  |
| C=C(C)C1CC[C@]2(C)CC1c1c(O)c3c(c(C/C=C(\C)CO)c1O2)O[C@]12C(=C[C@@H]4C[C@@H]1C(C)(C)O[C@@]2(C/C=C(/C)C(=O)OC)C4=O)C3=O (some centres undefined) | 0.24 | 0.62 |  |  | 13 |  |  | 0.98 |  |  |  | 2 | 14 | 2 |
| C=C(C)C1CC[C@]2(C)CC1c1c(O)c3c(c(CCC(C)(C)Cl)c1O2)O[C@]12C(=C[C@@H]4C[C@@H]1C(C)(C)O[C@@]2(C/C=C(/C)C(=O)OC)C4=O)C3=O (some centres undefined) | 4.55 | 1.98 |  |  | 2.63 |  |  | 4.63 |  |  |  |  |  | 2 |
| COC(=O)/C(C)=C\C[C@@]12OC(C)(C)[C@H]3C[C@@H](C=C4C(=O)c5c(O)c6c(c(CC=C(C)C)c5O[C@]431)O[C@]1(C)CCC(=C(C)C)C6C1)C2=O | 0.54 | 6.62 |  |  | 7.86 |  |  | 5.55 |  |  |  |  | 4 |  |
| C=C(C)C1CC[C@]2(C)CC1c1c(O)c3c(c(CCC(C)(C)Cl)c1O2)O[C@]12[C@@H]4C[C@H](C(=O)[C@]1(C/C=C(/C)C(=O)O)OC4(C)C)C(O)C2(O)C3=O (some centres undefined) | > 100 | > 100 |  |  | > 100 |  |  | > 100 |  |  |  |  |  |  |
